The values below come from article PMC12711630 (Cell Reports. Physical Science, 2025).

Data set [1] deals with T1, (α4)3(β2)2 (LS isoform) α4β2 nAChR (Homo sapiens, UniProt P17787+P43681).
T1 construct: expressed in transfected cells; host or cells: Xenopus laevis oocytes, nuclear injection of cDNA in plasmid pCI (10 α4 : 1 β2 for LS, 1 α4 : 10 β2 for HS)
Briefly: Inhibition of ACh EC80 current responses, Xenopus oocytes, LS isoform. It counts as cell-based.

Data set [2] concerns the target T2, 5-HT3A receptor (Homo sapiens, UniProt P46098).
T2 sequence (P46098 24-478): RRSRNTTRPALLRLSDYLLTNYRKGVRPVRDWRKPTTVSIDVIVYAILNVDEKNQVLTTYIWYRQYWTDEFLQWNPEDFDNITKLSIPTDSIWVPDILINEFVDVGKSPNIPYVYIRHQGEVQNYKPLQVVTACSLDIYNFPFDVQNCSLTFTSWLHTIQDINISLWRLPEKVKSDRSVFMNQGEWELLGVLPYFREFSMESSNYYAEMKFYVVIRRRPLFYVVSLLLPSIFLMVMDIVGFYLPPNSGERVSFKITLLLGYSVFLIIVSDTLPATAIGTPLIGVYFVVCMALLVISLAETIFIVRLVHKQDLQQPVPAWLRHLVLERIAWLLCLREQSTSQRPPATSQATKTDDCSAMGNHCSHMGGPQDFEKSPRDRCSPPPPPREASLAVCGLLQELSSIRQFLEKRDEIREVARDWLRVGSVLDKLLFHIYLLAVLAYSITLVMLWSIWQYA
As to the kind of experiment: FlexStation fluorescent membrane-potential dye assay, transfected HEK 293 cells. It counts as cell-based. Particulars: concentrations up to 30 µM.

Data set [3] has as its target T3, (α4)3(β2)2 (LS isoform) α4β2 nAChR WT (Homo sapiens, UniProt P17787+P43681).
T3 construct: expressed in transfected cells; host or cells: Xenopus laevis oocytes, nuclear injection of cDNA in plasmid pCI (10 α4 : 1 β2 for LS, 1 α4 : 10 β2 for HS)
Briefly: Two-electrode voltage clamp, Xenopus oocytes expressing LS α4β2 nAChR, wild type. It counts as cell-based.

In the next data set the target is T4, human α4β2 nAChR (Homo sapiens, UniProt P17787+P43681).
T4 construct: expressed in transfected cells; host or cells: HEK 293 cells, transient transfection with JetPEI, membranes
As to the kind of experiment: [3H]epibatidine radioligand binding (saturation and competition), membranes of transfected HEK 293 cells.

The target in a further data set is T5, human α7 nAChR (Homo sapiens, UniProt P36544).
T5 construct: expressed in transfected cells; host or cells: SH-SY5Y cells, transient transfection with JetPEI, membranes
As to the kind of experiment: [125I]α-Bgtx radioligand binding (saturation and competition), membranes of transfected SH-SY5Y cells. Particulars: competition with [125I]α-Bgtx 2-3 nM, Cheng-Prusoff.

The nature of data set [4]: Spectrophotometric titration pKa determination. Particulars: at pH 7.5.
The target in data set [5] is T6, (α4)2(β2)3 (HS isoform) α4β2 nAChR WT (Homo sapiens, UniProt P17787+P43681).
T6 construct: expressed in transfected cells; host or cells: Xenopus laevis oocytes, nuclear injection of cDNA in plasmid pCI (10 α4 : 1 β2 for LS, 1 α4 : 10 β2 for HS)
Briefly: Two-electrode voltage clamp, Xenopus oocytes expressing HS α4β2 nAChR, wild type. As to conditions: for EC50: Table 3, HS (α4)2(β2)3, varenicline variants series. It counts as cell-based.

Data set [6] deals with T2, 5-HT3A receptor. As to the kind of experiment: Inhibition of [3H]GR65630 binding, transfected HEK293 cell membranes. As to conditions: for IC50: n=3.
For data set [7], the target named is T7, (α4)2(β2)3 (HS isoform) α4β2 nAChR (Homo sapiens, UniProt P17787+P43681).
T7 construct: expressed in transfected cells; host or cells: Xenopus laevis oocytes, nuclear injection of cDNA in plasmid pCI (10 α4 : 1 β2 for LS, 1 α4 : 10 β2 for HS)
Briefly: Inhibition of ACh EC80 current responses, Xenopus oocytes, HS isoform. It counts as cell-based.

In another data set the target is T8, human α3β4 nAChR (Homo sapiens, UniProt P30926+P32297).
T8 construct: expressed in transfected cells; host or cells: HEK 293 cells, transient transfection with JetPEI, membranes
Briefly: [3H]epibatidine radioligand binding (saturation and competition), membranes of transfected HEK 293 cells.

Data set [8] concerns the target T9, (α4)3(β2)2 (LS isoform) α4β2 nAChR β2S133Vα4T183V (Homo sapiens, UniProt P17787+P43681, S133V/T183V).
T9 construct: expressed in transfected cells; host or cells: Xenopus laevis oocytes, nuclear injection of cDNA in plasmid pCI
As to the kind of experiment: Two-electrode voltage clamp, Xenopus oocytes, LS α4β2 nAChR β2S133Vα4T183V. It counts as cell-based.

The target in data set [9] is T10, (α4)2(β2)3 (HS isoform) α4β2 nAChR α4T183V (Homo sapiens, UniProt P17787+P43681, T183V).
T10 construct: expressed in transfected cells; host or cells: Xenopus laevis oocytes, nuclear injection of cDNA in plasmid pCI
As to the kind of experiment: Two-electrode voltage clamp, Xenopus oocytes, HS α4β2 nAChR α4T183V. It counts as cell-based.

For data set [10], the target named is T11, (α4)3(β2)2 (LS isoform) α4β2 nAChR α4T183V (Homo sapiens, UniProt P17787+P43681, T183V).
T11 construct: expressed in transfected cells; host or cells: Xenopus laevis oocytes, nuclear injection of cDNA in plasmid pCI
As to the kind of experiment: Two-electrode voltage clamp, Xenopus oocytes, LS α4β2 nAChR α4T183V. It counts as cell-based.

In data set [11] the test system is human 5-HT3 serotonin receptor. As to conditions: cited from earlier work.
Data set [12] concerns the target T12, (α4)3(β2)2 (LS isoform) α4β2 nAChR β2S133Vα4T139V (Homo sapiens, UniProt P17787+P43681, S133V/T139V).
T12 construct: expressed in transfected cells; host or cells: Xenopus laevis oocytes, nuclear injection of cDNA in plasmid pCI
As to the kind of experiment: Two-electrode voltage clamp, Xenopus oocytes, LS α4β2 nAChR β2S133Vα4T139V. It counts as cell-based.

Data set [13] concerns the target T13, (α4)2(β2)3 (HS isoform) α4β2 nAChR α4T139V (Homo sapiens, UniProt P17787+P43681, T139V).
T13 construct: expressed in transfected cells; host or cells: Xenopus laevis oocytes, nuclear injection of cDNA in plasmid pCI
As to the kind of experiment: Two-electrode voltage clamp, Xenopus oocytes, HS α4β2 nAChR α4T139V. It counts as cell-based.

Data set [14] has as its target T14, (α4)3(β2)2 (LS isoform) α4β2 nAChR α4T139V (Homo sapiens, UniProt P17787+P43681, T139V).
T14 construct: expressed in transfected cells; host or cells: Xenopus laevis oocytes, nuclear injection of cDNA in plasmid pCI
Briefly: Two-electrode voltage clamp, Xenopus oocytes, LS α4β2 nAChR α4T139V. It counts as cell-based.

In data set [15] the target is T15, (α4)2(β2)3 (HS isoform) α4β2 nAChR β2S133Vα4T183V (Homo sapiens, UniProt P17787+P43681, S133V/T183V).
T15 construct: expressed in transfected cells; host or cells: Xenopus laevis oocytes, nuclear injection of cDNA in plasmid pCI
Briefly: Two-electrode voltage clamp, Xenopus oocytes, HS α4β2 nAChR β2S133Vα4T183V. It counts as cell-based.

The target of data set [16] is T16, (α4)3(β2)2 (LS isoform) α4β2 nAChR β2S133V (Homo sapiens, UniProt P17787+P43681, S133V).
T16 construct: expressed in transfected cells; host or cells: Xenopus laevis oocytes, nuclear injection of cDNA in plasmid pCI
As to the kind of experiment: Two-electrode voltage clamp, Xenopus oocytes, LS α4β2 nAChR β2S133V. It counts as cell-based.

Data set [17] addresses T17, (α4)2(β2)3 (HS isoform) α4β2 nAChR β2S133Vα4T139V (Homo sapiens, UniProt P17787+P43681, S133V/T139V).
T17 construct: expressed in transfected cells; host or cells: Xenopus laevis oocytes, nuclear injection of cDNA in plasmid pCI
As to the kind of experiment: Two-electrode voltage clamp, Xenopus oocytes, HS α4β2 nAChR β2S133Vα4T139V. It counts as cell-based.

Data set [18] addresses T18, (α4)2(β2)3 (HS isoform) α4β2 nAChR β2S133V (Homo sapiens, UniProt P17787+P43681, S133V).
T18 construct: expressed in transfected cells; host or cells: Xenopus laevis oocytes, nuclear injection of cDNA in plasmid pCI
Briefly: Two-electrode voltage clamp, Xenopus oocytes, HS α4β2 nAChR β2S133V. It counts as cell-based.

Values joined by “and” are separate entries in the source; they are usually repeats but may differ in a detail not shown here. Equal values may be shown once. Read-outs that look alike come from different tables or passages of the source. Marks after values point to notes of the source that are not given here.

For the molecule `c1ccc2cc3c(cc2c1)C1CNCC3C1` [C2 varenicline 4], the IC50 was 33 ± 14 µM in data set [1] (co-applied with ACh EC80 300 µM); 13.6 µM on 5-HT3A receptor [6] (mean + SEM, read-out: pIC50, inhibition of [3H]GR65630 binding (converted)); 11 ± 1.2 µM in data set [7]. Also, the “functional response at 5-HT3A receptors” value on 5-HT3A receptor [2] is recorded as “No signiﬁcant responses”. For the same molecule, the figures for the RE in data set [3] and in data set [5] were 0.102 ± 0.012 ^a and 0.022 ± 0.0033 ^a, respectively. The “fold increase in EC50 vs varenicline 1” value in data set [3] and in data set [5] was 10 fold in each case. Besides, the “fold reduction of efficacy vs varenicline 1” value was 4 fold in [3] and 6 fold in data set [5]. For the same molecule, the EC50 in data set [3] (Table 3, LS (α4)3(β2)2, varenicline variants series, read-out: EC50) worked out at 11.5 ± 1.74 µM; in [5], 2.64 ± 0.8 µM. The Ki at human α4β2 nAChR came to 0.0143 ± 0.0016 µM; at human α7 nAChR, 1.32 µM; on human α3β4 nAChR (competition with [3H]epibatidine 0.25 nM, Cheng-Prusoff), 0.267 ± 0.073 µM. The “fold decrease in affinity compared to varenicline 1” value on human α4β2 nAChR is “approximately 30 fold”. The “protonated fraction of ammonium center” value in data set [4] is at least 90%. The “fold increase of IC50 against [3H]GR65630 compared to varenicline 1” value on 5-HT3A receptor [6] was 44 fold. Also, at human α3β4 nAChR, the “Ki ratio α3β4/α4β2” value came to 18.7. Further, the pKa in “physchem” stood at 9.63 ± 0.08.
Consider `O=c1cccc2n1C[C@@H]1CNC[C@H]2C1` [Cytisine 3, cytisine], for which the EC50 in data set [8] turned out to be 6.9 ± 1.5 µM; in data set [10], 4.6 ± 1 µM; in [3] it was 2.9 ± 0.8 µM; in data set [12] it was 5.8 ± 1.4 µM; in data set [14] it was 2.5 ± 0.7 µM; in [16], 5.1 ± 1 µM. Moreover, the “RE (relative efficacy, I/ImaxACh)” value is 0.19 ± 0.01 in data set [8]; 0.021 ± 0.003 in [9]; 0.22 ± 0.02 in data set [10]; 0.23 and 0.23 ± 0.08 in data set [3]; 0.18 ± 0.01 in [12]; 0.023 ± 0.001 in data set [13]. Moreover, the “RE (relative efficacy, I/ImaxACh)” value in data set [14] is 0.19 ± 0.02; in data set [15] it was 0.018 ± 0.003; in [16], 0.21 ± 0.01; in data set [17], 0.022 ± 0.009; in data set [5], 0.025 and 0.025 ± 0.004; in [18], 0.016 ± 0.002. Also, the “fold less potent than varenicline 1” value in [11] was 2,000 fold. Moreover, in the data set “physchem” (pKa value), the pKa turned out to be 8.07.
With `c1ccc2nc3c(nc2c1)C1CNCC3C1` [Isovarenicline 5], the IC50 in data set [1] was 142 ± 21 µM; at 5-HT3A receptor [6] ([3H]GR65630 0.3 nM, read-out: IC50, inhibition of [3H]GR65630 binding), 49.6 µM; in data set [7], 70 ± 12 µM. On 5-HT3A receptor [2], the “functional response at 5-HT3A receptors” value was “No signiﬁcant responses”. For the same molecule, the values for the RE in data set [3] and in data set [5] were 0.054 ± 0.013 ^a and 0.0071 ± 0.00086 ^a, respectively. The “fold reduction of efficacy vs varenicline 1” value in [3] is reported as 7 fold; in [5] it was 20 fold. For the same molecule, the EC50 in data set [3] (read-out: EC50) turned out to be 26 ± 8.5 µM; in data set [5], 13.3 ± 2.5 µM. The Ki at human α4β2 nAChR (read-out: Ki α4β2) was determined as 5.46 µM; on human α7 nAChR, 127 µM; on human α3β4 nAChR, 67.7 µM. Also, the “protonated fraction of ammonium center” value in data set [4] is recorded as at least 90%. Further, the “fold increase of IC50 against [3H]GR65630 compared to varenicline 1” value at 5-HT3A receptor [6] is 165 fold. In addition, the “Ki ratio α3β4/α4β2” value at human α3β4 nAChR is listed as 12. The molecule further displayed a pKa in “physchem” of 8.44 ± 0.09.
